Assay results from ChEMBL document CHEMBL1152778, “Design, synthesis, and biological evaluation of (2R,alphaS)-3,4-dihydro-2-[3-(1,1,2,2-tetrafluoroethoxy)phenyl]-5-[3-(trifluoromethoxy)-phenyl]-alpha-(trifluoromethyl)-1(2H)-quinolineethanol as potent and orally active cholesteryl ester transfer protein inhibitor” (J Med Chem, 2009).
Activity calls are given as the source filed them. The calls are words filed in the database; no cut-off is given here.

Experiments:
[1] = tested on: Cynomolgus monkey; assay: Increase in HDLC level in normal chow diet-fed cynomolgus monkey at 3 mg/kg, po for 5 days measured after 10 hrs of last dose; assay type: functional, Macaca fascicularis
[2] = Plasma concentration in normal chow diet-fed cynomolgus monkey at 30 mg/kg, po for 5 days; assay type: ADME, organism-based, Macaca fascicularis; set-up: dose 30 mg/kg, route oral
[3] = Plasma concentration in normal chow diet-fed cynomolgus monkey at 10 mg/kg, po for 5 days; assay type: ADME, organism-based, Macaca fascicularis; set-up: dose 10 mg/kg, route oral
[4] = tested on: Cynomolgus monkey; assay: Ex vivo inhibition of CETP in normal chow diet-fed cynomolgus monkey at 3 mg/kg, po for 5 days by Roar assay; assay type: functional; settings: Macaca fascicularis, 120 h
[5] = target: T1, Lipoprotein lipase (Homo sapiens) (UniProt P06858); assay: Inhibition of lipoprotein lipase activity assessed as release of free fatty acid from hydrolysis of VLDL by cell based assay
T1 sequence (whole entry): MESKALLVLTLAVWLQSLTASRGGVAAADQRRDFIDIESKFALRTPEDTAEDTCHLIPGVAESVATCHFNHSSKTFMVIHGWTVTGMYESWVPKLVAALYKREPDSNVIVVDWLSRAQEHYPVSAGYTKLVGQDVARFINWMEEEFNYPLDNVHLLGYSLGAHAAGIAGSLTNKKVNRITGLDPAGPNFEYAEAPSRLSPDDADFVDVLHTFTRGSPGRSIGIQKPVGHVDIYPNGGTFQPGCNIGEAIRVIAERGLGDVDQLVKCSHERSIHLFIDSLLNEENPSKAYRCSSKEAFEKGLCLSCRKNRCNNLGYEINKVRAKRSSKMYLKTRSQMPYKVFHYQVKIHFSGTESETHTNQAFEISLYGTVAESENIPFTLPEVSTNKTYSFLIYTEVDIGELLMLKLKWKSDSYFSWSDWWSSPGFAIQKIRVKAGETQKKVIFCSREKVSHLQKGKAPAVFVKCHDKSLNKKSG

[6] = target: Phospholipid transfer protein (Homo sapiens) (UniProt P55058); assay: Inhibition of PLTP activity assessed as phosphatidylcholine transferred from [3H]phosphatidylcholine (dipalmitoyl)-labeled liposomes to HDL by cell based liquid scintillation counter
Sequence of Phospholipid transfer protein (Homo sapiens) (P55058 whole entry): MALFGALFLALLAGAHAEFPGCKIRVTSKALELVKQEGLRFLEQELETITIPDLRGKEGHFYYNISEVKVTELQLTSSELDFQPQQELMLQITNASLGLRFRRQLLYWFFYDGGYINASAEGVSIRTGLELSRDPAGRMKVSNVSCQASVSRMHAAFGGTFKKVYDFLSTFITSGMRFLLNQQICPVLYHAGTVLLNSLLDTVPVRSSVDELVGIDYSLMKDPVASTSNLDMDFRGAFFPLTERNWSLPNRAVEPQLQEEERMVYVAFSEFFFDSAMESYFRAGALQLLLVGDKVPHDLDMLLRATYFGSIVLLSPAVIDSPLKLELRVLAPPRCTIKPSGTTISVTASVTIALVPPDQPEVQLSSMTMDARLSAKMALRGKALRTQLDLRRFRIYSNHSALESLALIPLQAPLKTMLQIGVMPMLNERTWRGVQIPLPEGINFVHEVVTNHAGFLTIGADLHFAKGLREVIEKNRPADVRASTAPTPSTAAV

[7] = tested on: Cynomolgus monkey; assay: Increase in HDLC level in normal chow diet-fed cynomolgus monkey at 10 mg/kg, po for 5 days measured after 10 hrs of last dose; assay type: functional, Macaca fascicularis
[8] = tested on: Hamster; assay: Increase in HDLC level in high-fat fed hamster model at 30 mg/kg, po for 5 days measured after 2 hrs of last dose; assay type: functional, Cricetinae
[9] = Plasma concentration in normal chow diet-fed cynomolgus monkey at 3 mg/kg, po for 5 days; assay type: ADME, organism-based, Macaca fascicularis; set-up: dose 3 mg/kg, route oral
[10] = tested on: Mus musculus; assay: Increase in HDLC level in normal chow diet-fed human CETP transgenic mouse model at 30 mg/kg, po for 5 days measured after 2 hrs of last dose; assay type: functional
[11] = target: T2, Phosphatidylcholine-sterol acyltransferase (Homo sapiens) (UniProt P04180); assay: Inhibition of LCAT activity in human plasma assessed as change in cholesteryl ester/free cholesterol ratio by cell based assay
T2 sequence (whole entry): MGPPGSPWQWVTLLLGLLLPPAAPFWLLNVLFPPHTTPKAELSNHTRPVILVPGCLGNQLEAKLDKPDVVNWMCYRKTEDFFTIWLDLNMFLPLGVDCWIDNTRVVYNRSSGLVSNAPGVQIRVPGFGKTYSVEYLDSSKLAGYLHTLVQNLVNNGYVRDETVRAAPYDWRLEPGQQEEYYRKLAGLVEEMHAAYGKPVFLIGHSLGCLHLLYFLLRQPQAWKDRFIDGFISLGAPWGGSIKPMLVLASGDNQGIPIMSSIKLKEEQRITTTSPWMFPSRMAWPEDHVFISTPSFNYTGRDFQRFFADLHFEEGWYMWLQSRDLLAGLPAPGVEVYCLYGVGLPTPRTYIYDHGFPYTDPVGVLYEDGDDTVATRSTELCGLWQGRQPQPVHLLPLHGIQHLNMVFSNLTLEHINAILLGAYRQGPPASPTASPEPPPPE

[12] = tested on: Cynomolgus monkey; assay: Increase in HDLC level in normal chow diet-fed cynomolgus monkey at 30 mg/kg, po for 5 days measured after 10 hrs of last dose; assay type: functional, Macaca fascicularis
[13] = target: T3, Endothelial lipase (Homo sapiens) (UniProt Q9Y5X9); assay: Inhibition of endothelial lipase by cell based assay
T3 sequence (whole entry): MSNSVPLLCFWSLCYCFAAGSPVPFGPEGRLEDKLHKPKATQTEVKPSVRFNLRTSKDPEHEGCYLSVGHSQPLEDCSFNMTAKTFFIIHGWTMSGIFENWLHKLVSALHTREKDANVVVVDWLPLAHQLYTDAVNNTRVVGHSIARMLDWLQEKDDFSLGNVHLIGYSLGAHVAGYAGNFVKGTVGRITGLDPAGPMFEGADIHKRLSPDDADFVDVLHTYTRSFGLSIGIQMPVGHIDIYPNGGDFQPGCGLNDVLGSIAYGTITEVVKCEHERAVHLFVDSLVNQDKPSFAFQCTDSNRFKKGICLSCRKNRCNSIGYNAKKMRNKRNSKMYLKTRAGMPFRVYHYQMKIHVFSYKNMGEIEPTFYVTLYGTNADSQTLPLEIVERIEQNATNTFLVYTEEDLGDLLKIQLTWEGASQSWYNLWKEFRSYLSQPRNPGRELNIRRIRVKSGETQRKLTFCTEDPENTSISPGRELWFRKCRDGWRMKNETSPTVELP

[14] = tested on: Cynomolgus monkey; assay: Ex vivo inhibition of CETP in normal chow diet-fed cynomolgus monkey at 10 mg/kg, po for 5 days by Roar assay; assay type: functional; settings: Macaca fascicularis, 120 h
[15] = tested on: Cynomolgus monkey; assay: Ex vivo inhibition of CETP in normal chow diet-fed cynomolgus monkey at 30 mg/kg, po for 5 days by Roar assay; assay type: functional; settings: Macaca fascicularis, 120 h
[16] = target: T4, Hepatic triacylglycerol lipase (Homo sapiens) (UniProt P11150); assay: Inhibition of hepatic lipase activity assessed as release of free fatty acid from hydrolysis of VLDL by cell based assay
T4 sequence (whole entry): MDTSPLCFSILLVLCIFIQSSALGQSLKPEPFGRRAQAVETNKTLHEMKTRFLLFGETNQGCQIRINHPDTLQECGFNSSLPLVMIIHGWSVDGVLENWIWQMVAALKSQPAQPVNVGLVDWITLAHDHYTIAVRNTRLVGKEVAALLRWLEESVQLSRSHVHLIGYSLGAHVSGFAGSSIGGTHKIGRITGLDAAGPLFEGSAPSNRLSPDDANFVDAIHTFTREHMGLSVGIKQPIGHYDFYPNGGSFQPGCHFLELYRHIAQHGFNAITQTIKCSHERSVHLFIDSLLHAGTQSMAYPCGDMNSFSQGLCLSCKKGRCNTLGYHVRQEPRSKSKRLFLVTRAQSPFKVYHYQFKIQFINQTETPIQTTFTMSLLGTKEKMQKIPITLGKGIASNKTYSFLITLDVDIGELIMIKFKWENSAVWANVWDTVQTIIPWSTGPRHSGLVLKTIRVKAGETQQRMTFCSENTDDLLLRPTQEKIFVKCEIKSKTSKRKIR

[17] = target: T5, Microsomal triglyceride transfer protein large subunit (Homo sapiens) (UniProt P55157); assay: Inhibition of microsomal triglyceride transfer protein by cell based assay
T5 sequence (whole entry): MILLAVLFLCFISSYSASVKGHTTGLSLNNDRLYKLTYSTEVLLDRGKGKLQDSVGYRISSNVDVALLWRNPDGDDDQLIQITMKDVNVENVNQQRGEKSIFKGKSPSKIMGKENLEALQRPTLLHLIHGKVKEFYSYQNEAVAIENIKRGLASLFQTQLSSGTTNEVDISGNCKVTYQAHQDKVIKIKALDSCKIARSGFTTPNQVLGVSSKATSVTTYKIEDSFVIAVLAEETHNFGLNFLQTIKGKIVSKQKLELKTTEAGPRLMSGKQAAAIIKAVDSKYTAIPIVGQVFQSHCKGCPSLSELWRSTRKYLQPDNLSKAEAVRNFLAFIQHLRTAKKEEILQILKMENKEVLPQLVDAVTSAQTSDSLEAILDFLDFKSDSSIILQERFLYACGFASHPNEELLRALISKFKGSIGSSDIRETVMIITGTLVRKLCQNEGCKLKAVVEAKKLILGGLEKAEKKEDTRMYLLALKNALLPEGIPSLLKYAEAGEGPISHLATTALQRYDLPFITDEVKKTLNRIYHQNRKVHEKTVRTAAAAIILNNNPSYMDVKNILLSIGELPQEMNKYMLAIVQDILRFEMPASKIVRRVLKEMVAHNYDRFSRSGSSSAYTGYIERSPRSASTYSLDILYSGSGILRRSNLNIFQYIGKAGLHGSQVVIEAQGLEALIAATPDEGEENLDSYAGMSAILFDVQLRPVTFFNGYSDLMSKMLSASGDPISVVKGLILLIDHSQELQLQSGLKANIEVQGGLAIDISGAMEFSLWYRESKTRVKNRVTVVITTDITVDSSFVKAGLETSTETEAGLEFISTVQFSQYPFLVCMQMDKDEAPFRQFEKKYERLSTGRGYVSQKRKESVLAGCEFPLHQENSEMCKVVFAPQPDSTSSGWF

## CCOC(=O)N1c2ccc(C(F)(F)F)cc2[C@@H](N(Cc2cc(C(F)(F)F)cc(C(F)(F)F)c2)C(=O)OC)C[C@H]1CC [TORCETRAPIB]
[1]
  Activity: 24%
[2]
  concentration at 120 h: 2900 nM
[3]
  concentration at 120 h: 1300 nM
[4]
  inhibition in vivo at 3 mg/kg: 35%
[5]
  Activity: inactive
[6]
  Activity: inactive
[7]
  Activity: 41%
[8]
  Activity: 44%
[9]
  concentration at 120 h: 300 nM
[10]
  Activity: 28%
[11]
  Activity: inactive
[12]
  Activity: 44%
[13]
  Activity: inactive
[14]
  inhibition in vivo at 10 mg/kg: 66%
[15]
  inhibition in vivo at 30 mg/kg: 85%
[16]
  Activity: inactive
[17]
  Activity: inactive
